Reference: paper PMC2244712, “One-Pot, Mix-and-Read Peptide-MHC Tetramers” (PLoS ONE, 2008)
Residues, ends and D or L forms follow the SMILES beside them.

Legend:
HLA-A*0201 = molecular target: T1, HLA-A*0201 (Homo sapiens, UniProt P04439, D140Y/D185E/D98H/E176V/E277Q/G131W/G231S/I119V/I121R/I166T/I218V/L300P/L318F/N151K/N90K/P208A/P217A/Q86G/Q94H/R138H/R169H/T345S); experiment: biochemical; assay type: binding
T1 construct: generated from synthetic codon optimized and truncated genes without the transmembrane region; BSP (BirA biotinylation substrate peptide, biotinylated in vivo or not) (C); made in house; host or cells: E. coli BL21 (DE3), pET28a+, co-transformed with a BirA vector

[1] = molecular target: in vivo biotinylated HLA-B*0702-BSPHAT heavy chain folded with ß2m (human); experiment: ELISA
[2] = molecular target: in vivo biotinylated HLA-A*0201-HAT-BSP heavy chain folded with ß2m (human); experiment: ELISA
[3] = molecular target: in vivo biotinylated HLA-B*4402-HATBSP heavy chain folded with ß2m (human); experiment: ELISA

Sequence of EBV EBNA3b 657-666 peptide (P03203 whole entry, looked up): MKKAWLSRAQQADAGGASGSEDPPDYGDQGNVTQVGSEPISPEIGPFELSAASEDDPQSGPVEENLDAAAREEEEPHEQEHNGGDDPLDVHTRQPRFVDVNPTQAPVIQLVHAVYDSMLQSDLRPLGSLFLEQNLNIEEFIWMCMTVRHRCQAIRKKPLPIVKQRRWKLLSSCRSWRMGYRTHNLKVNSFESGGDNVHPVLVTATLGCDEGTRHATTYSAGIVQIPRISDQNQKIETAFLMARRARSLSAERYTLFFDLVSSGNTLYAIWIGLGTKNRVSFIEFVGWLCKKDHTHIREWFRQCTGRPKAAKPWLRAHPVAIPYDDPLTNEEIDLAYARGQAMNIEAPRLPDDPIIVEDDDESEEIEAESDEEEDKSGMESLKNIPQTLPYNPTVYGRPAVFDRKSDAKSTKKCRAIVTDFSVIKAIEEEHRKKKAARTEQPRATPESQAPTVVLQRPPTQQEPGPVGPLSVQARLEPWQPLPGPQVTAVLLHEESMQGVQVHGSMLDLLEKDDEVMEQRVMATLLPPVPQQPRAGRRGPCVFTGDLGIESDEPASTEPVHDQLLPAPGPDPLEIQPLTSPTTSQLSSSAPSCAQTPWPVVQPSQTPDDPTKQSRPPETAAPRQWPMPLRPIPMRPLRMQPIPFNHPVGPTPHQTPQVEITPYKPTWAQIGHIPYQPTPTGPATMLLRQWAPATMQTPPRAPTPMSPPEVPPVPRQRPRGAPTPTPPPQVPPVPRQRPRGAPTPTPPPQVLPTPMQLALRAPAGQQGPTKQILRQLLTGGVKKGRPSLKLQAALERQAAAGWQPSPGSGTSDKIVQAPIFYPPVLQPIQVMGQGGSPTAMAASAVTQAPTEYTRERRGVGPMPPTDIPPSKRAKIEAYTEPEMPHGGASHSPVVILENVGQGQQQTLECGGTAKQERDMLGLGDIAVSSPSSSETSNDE
Sequence of CMV pp65 417-426 peptide (P06725 whole entry, looked up): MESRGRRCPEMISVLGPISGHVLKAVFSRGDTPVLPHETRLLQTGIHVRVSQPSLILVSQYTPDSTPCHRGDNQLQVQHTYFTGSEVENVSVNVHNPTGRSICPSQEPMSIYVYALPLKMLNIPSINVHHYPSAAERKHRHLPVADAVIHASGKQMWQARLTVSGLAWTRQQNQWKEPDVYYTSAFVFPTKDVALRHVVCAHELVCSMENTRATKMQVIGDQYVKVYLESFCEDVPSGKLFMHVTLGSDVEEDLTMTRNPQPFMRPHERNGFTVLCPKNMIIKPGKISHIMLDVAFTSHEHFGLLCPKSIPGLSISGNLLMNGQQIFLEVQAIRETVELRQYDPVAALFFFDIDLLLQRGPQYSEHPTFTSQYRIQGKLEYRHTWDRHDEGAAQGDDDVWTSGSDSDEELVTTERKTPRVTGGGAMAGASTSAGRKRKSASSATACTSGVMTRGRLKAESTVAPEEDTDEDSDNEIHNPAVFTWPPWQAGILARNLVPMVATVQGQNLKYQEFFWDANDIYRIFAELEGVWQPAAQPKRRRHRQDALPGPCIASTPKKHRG
Sequence of CMV pp65 495-503 peptide (P06725 whole entry, looked up): as above

Compound	Kd (HLA-A*0201)	other results
CC[C@H](C)[C@H](NC(=O)[C@H](CCCCN)NC(=O)[C@H](CCCCN)NC(=O)[C@H](CS)NC(=O)[C@H](C)NC(=O)[C@H](CC(=O)O)NC(=O)[C@H](CO)NC(=O)[C@H](CC(C)C)NC(=O)[C@H](C)N)C(=O)O (H-ALSDACKKI-OH)	> 1000 nM	–
CC(C)C[C@H](NC(=O)[C@@H](N)Cc1ccccc1)C(=O)N[C@@H](CCC(=O)O)C(=O)N[C@H](C(=O)N[C@@H](CC(=O)O)C(=O)N[C@@H](C)C(=O)NCC(=O)N[C@@H](CCCNC(=N)N)C(=O)N[C@H](C(=O)O)C(C)C)[C@@H](C)O (H-FLETDAGRV-OH)	10 to 100 nM	–
CC[C@H](C)[C@H](NC(=O)[C@@H](NC(=O)[C@H](CC(=O)O)NC(=O)[C@H](Cc1ccc(O)cc1)NC(=O)[C@H](CC(=O)O)NC(=O)[C@H](CC(C)C)NC(=O)[C@@H](N)Cc1ccc(O)cc1)[C@@H](C)O)C(=O)N[C@@H](Cc1ccc(O)cc1)C(=O)N[C@H](C(=O)O)C(C)C (H-YLDYDTIYV-OH)	< 10 nM	–
CC[C@H](C)[C@H](NC(=O)[C@H](CC(N)=O)NC(=O)[C@@H](NC(=O)[C@H](C)NC(=O)[C@H](CO)NC(=O)[C@H](CC(=O)O)NC(=O)[C@H](CO)NC(=O)[C@H](CC(C)C)NC(=O)[C@@H](N)Cc1ccc(O)cc1)[C@@H](C)CC)C(=O)O (H-YLSDSAINI-OH)	< 10 nM	–
CC(C)C[C@H](NC(=O)[C@@H](N)Cc1ccc(O)cc1)C(=O)N[C@@H](CO)C(=O)N[C@H](C(=O)N[C@@H](CCC(=O)O)C(=O)N[C@@H](CCCNC(=N)N)C(=O)N[C@@H](CC(=O)O)C(=O)N[C@@H](Cc1c[nH]cn1)C(=O)N[C@H](C(=O)O)C(C)C)[C@@H](C)O (H-YLSTERDHV-OH)	10 to 100 nM	–
CMV pp65 417-426 peptide (from UniProt P06725 417-426)	–	% folding [1]: 100%
CMV pp65 495-503 peptide (from UniProt P06725 495-503)	–	% folding [2]: 95%
EBV EBNA3b 657-666 peptide (from UniProt P03203 657-666)	–	% folding [3]: 100%
